{"source": "patent US20180153890A1", "about": "“PHARMACEUTICAL COMPOSITIONS AND USE THEREOF” (Hutchison MediPharma Limited, priority 2015, published 2018)", "key": {"NCI-H716 cells": {"tested_on": "NCI-H716 cells", "assay": "Cell viability assay on NCI-H716 (CCK-8)", "assay_type": "cell-based", "conditions": "Homo sapiens, 72 h incubation, read-out: IC50 on inhibition of NCI-H716 cells viability", "description": "NCI-H716: human cecum colorectal adenocarcinoma cell line, purchased from ATCC (American Type Culture Collection).\nCulture medium: RPMI 1640 containing 10% FBS.\nNCI-H716 cells were diluted with RPMI-1640 medium containing 10% FBS. 90 μL of the diluted cells were added into each well of a 96-well plate so that each well contained 1×10^4 cells. The cells were subsequently incubated at 37° C., 5% CO2 overnight.\nTest compound dissolved in DMSO was diluted to 30, 10, 3.33, 1.11, 0.37, 0.12, 0.04, 0.01 μM with serum free RPMI-1640 medium containing 5% DMSO. Then 10 μL of the diluted compound was added into the above 90 μL cell cultures (final concentration of DMSO in the reaction mixture should be 0.5%), and incubated at 37° C., 5% CO2 for 72 h.\n10 μL of CCK-8 solution was added into cells, and incubated at 37° C., 5% CO2 for additional 1 h. The optical density of each well was measured at 450 nm and 630 nm, respectively, by Labsystems Multiskan K3.\n[formula] • [OD compound]450-630: the optical density of well containing cells with compound treatment; • [OD cell]450-630: the optical density of wells containing cells without compound treatment; • [OD background]450-630: the optical density of wells containing culture medium only.\nIC50: IC50 is calculated based on the inhibition curve fitted by XL-Fit 2.0 software."}, "NCI-H716 tumor": {"tested_on": "NCI-H716 tumor", "assay": "Anti-tumor efficacy in NCI-H716 subcutaneous xenograft model", "assay_type": "in vivo", "conditions": "three weeks", "description": "NCI-H716 cell line was purchased from ATCC (CCL-251™) and incubated in the medium of RPM11640 (Rosewell Park Memorial Institute 1640) plus 10% fetal bovine serum (FBS) at 37° C. in a 5% CO2 incubator.\nBALB/c athymic male mice (6-8 weeks) were purchased from Shanghai SLAC Laboratory Animal Co. Ltd. The mice were housed under specific pathogen free conditions. They were maintained in a 12 hour light and dark cycle with the temperature at 20-25° C. and humidity of 40%-70% and given free access to Co^60 radiated-sterile diet and autoclaved sterile water. There were four mice in each cage.\nCompound A was dissolved in 0.5% CMC-Na, vortexed for 1-3 min, sonicated for 15 min and stored at 4° C. Compound A was formulated at 2.0, 4.0 and 8.0 mg/mL and prepared once a week.\nWhen NCI-H716 cells reached about 80-90% in confluence, they were detached by Trypsin-EDTA and collected after centrifugation, then suspended in serum free-medium. Each mouse was injected subcutaneously in the right lateral flank with 0.2 mL of cells suspension containing 5×10^6 tumor cells with Martrigel (1:1).\nWhen the NCI-H716 tumors grew to around average 300 mm^3, the tumor bearing mice were randomized to vehicle and Compound A treated groups. Compound A in 0.5% CMC-Na as prepared above was orally administered to mice at 20, 40 and 80 mg/kg twice daily for three weeks, and the vehicle group received 0.5% CMC-Na orally twice daily. The dosing volume was 10 mL/kg body weight. Tumor volume (TV) was measured two times per week by caliper for length and width, and calculated using the formula: TV=width^2×length/2.\nAt the end of the study, tumors were harvested and tumor growth inhibition (TGI) and tumor weight inhibition (IRTW) were calculated by the following equations, where V0 were the data at day 0 (D0) (starting day) and Vt were the data at measurement day t (Dt):\nTGI=[1−(Vt−V0)drug treated/(Vt−V0)vehicle]×100%\nIRTW(%)=[(TWvehicle−TWtreatment)/TWvehicle]×100%\nStudent's t-test was used for in comparison with vehicle control. Differences were considered statistically significant at P<0.05."}, "[1]": {"conditions": "20 mg/kg bid oral, end of study"}}, "note": "Marks after values point to notes of the source that are not given here.", "data": [{"smiles": "Cc1cc2cc(Oc3ccnc(Nc4cccc(CS(=O)(=O)NCCN(C)C)c4)n3)ccc2[nH]1", "note": "[Compound A, N-(2-(dimethylamino)ethyl)-1-(3-((4-((2-methyl-1H-indol-5-yl)oxy)pyrimidin-2-yl)amino)phenyl)-methanesulfonamide]", "values": [{"measurement": "IC50", "setting": "NCI-H716 cells", "value": 159, "unit": "nM"}, {"measurement": "IRTW (tumor weight inhibition)", "setting": "NCI-H716 tumor; [1]", "value": "49.9* %"}, {"measurement": "TGI (tumor growth inhibition)", "setting": "NCI-H716 tumor; [1]", "value": 57.1, "unit": "%"}, {"measurement": "TGI (tumor growth inhibition)", "setting": "NCI-H716 tumor; 40 mg/kg bid oral, end of study", "value": 73.9, "unit": "%"}, {"measurement": "TGI (tumor growth inhibition)", "setting": "NCI-H716 tumor; 80 mg/kg bid oral, end of study", "value": 80.0, "unit": "%"}, {"measurement": "clinical signs of toxicity", "setting": "NCI-H716 tumor; treated mice, 20, 40 and 80 mg/kg bid oral", "value": "No clinical signs of toxicity were observed"}]}]}
